Experimental data: article PMC2697495 (The Journal of pharmacy and pharmacology, 2008)
Marks after values point to notes of the source that are not given here.

Tests used:
[1] = system: pooled human liver microsomes (pHLMs); experiment: 5-HT glucuronidation by pooled human liver microsomes; format: biochemical; conditions: pHLM, 4 mM 5-HT, n=3
[2] = system: pooled human liver microsomes (pHLMs); experiment: Trifluoperazine glucuronidation by pHLMs; format: biochemical; conditions: pHLM, 200 μM trifluoperazine, n=3
UGT1A4 = biological target: T1, UGT1A4 (Homo sapiens, UniProt P22310); experiment: Trifluoperazine glucuronidation by recombinant UGT1A4; format: biochemical; conditions: for Trifluoperazine glucuronidation, % of the control activity (measured at 0 mM): UGT1A4, 200 μM trifluoperazine, n=3
T1 sequence (P22310 29-534): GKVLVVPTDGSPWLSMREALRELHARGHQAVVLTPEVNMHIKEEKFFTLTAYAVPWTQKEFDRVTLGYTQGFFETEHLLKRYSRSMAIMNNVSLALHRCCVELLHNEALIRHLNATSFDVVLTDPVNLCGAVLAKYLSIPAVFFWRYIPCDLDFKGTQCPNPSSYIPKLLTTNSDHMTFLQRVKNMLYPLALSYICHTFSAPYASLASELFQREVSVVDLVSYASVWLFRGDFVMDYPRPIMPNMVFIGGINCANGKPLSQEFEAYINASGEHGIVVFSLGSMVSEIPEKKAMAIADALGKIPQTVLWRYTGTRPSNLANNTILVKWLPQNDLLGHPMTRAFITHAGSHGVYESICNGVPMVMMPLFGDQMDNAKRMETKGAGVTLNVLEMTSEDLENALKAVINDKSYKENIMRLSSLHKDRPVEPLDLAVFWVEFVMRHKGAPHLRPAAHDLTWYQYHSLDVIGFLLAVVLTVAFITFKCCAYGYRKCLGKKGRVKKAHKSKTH

[3] = system: pooled human liver microsomes (pHLMs); experiment: Codeine glucuronidation by pHLMs; format: biochemical; conditions: for Codeine glucuronidation, % of the control activity (measured at 0 mM): pHLM, 1 mM codeine, n=3
UGT2B4 = UGT2B4 (Homo sapiens, UniProt P06133); experiment: Codeine glucuronidation by recombinant UGT2B4; format: biochemical; conditions: 1 mM codeine, n=3
[4] = system: pooled human liver microsomes (pHLMs); experiment: AZT glucuronidation by pHLMs; format: biochemical; conditions: pHLM, 500 μM AZT, n=3
UGT1A3 = biological target: T2, UGT1A3 (Homo sapiens, UniProt P35503); experiment: Estradiol-3 glucuronidation by recombinant UGT1A3; format: biochemical; conditions: for Estradiol-3 glucuronidation, % of the control activity (measured at 0 mM): UGT1A3, 100 μM estradiol, n=3
T2 sequence (P35503 29-534): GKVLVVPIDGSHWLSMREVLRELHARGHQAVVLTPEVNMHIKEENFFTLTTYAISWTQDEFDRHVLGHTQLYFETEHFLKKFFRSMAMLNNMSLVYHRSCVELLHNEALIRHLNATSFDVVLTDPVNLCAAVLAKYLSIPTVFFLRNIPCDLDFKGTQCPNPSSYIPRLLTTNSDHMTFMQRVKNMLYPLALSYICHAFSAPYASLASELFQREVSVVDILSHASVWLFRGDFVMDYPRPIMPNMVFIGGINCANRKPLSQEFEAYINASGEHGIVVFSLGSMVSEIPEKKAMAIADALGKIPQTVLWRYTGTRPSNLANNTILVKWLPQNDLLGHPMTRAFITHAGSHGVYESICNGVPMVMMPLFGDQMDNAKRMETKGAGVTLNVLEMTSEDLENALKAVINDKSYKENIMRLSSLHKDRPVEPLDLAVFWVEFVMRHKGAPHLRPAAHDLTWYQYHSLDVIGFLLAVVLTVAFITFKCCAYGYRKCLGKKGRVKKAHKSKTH

UGT2B7 = biological target: T3, UGT2B7 (Homo sapiens, UniProt P16662); experiment: Estradiol-17 glucuronidation by recombinant UGT2B7; format: biochemical; conditions: for Estradiol-17 glucuronidation, % of the control activity (measured at 0 mM): UGT2B7, 100 μM estradiol, n=3
T3 sequence (P16662 24-529): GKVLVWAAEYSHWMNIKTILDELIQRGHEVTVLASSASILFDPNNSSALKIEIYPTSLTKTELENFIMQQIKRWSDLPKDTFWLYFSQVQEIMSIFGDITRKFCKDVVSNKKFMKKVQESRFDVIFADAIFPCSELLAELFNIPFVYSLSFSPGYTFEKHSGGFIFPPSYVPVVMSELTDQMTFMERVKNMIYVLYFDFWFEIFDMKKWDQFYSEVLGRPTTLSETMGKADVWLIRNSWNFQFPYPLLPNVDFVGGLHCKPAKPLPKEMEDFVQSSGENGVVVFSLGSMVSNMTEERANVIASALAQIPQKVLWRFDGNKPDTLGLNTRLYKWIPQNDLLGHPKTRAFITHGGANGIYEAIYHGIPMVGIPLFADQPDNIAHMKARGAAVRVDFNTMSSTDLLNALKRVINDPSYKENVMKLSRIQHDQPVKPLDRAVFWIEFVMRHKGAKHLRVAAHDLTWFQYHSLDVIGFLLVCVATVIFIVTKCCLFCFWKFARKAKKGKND

[5] = system: pooled human liver microsomes (pHLMs); experiment: e-4-hydroxy-tamoxifen glucuronidation by pHLMs; format: biochemical; conditions: 20 mM saccharolactone, pH-adjusted to 7.5
UGT2B15 = UGT2B15 (Homo sapiens, UniProt P54855); experiment: e-4-hydroxy-tamoxifen glucuronidation by insect cell-expressed UGT2B15; format: biochemical; conditions: 20 mM saccharolactone, pH-adjusted to 7.5
[6] = Effect of saccharolactone on pH of 50 mM potassium phosphate incubation buffer; format: physicochemical
HLMs = conditions: 5 mM saccharolactone, ref Kemp et al 2002; cited from earlier work

Chain of UGT2B4 (P06133 24-528): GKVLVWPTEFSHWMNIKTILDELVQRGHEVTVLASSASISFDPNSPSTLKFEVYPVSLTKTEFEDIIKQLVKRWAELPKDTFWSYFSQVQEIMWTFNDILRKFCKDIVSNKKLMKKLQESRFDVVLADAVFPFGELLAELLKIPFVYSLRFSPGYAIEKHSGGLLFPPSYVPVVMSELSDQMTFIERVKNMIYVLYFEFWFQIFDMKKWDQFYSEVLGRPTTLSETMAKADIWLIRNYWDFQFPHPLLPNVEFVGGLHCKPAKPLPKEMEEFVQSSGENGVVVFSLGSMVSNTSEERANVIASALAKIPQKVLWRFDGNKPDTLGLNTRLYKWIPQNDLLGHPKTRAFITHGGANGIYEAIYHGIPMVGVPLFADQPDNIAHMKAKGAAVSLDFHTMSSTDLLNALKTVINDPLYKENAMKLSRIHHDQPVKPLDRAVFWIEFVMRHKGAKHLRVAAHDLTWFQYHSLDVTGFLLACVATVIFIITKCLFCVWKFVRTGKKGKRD
Chain of UGT2B15 (P54855 24-530): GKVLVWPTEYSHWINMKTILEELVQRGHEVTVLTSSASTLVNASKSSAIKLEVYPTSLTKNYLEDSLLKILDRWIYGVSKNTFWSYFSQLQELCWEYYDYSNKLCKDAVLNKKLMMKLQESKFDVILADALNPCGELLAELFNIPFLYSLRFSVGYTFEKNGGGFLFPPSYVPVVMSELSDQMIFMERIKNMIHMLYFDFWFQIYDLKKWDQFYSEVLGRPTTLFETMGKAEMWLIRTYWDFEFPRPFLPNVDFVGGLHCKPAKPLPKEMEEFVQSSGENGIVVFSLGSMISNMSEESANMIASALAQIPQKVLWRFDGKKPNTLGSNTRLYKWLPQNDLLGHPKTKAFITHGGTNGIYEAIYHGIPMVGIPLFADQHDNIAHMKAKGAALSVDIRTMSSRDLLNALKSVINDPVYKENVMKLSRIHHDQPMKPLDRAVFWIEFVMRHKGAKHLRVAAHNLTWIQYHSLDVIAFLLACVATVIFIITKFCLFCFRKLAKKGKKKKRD

## O=C(O)[C@@H](O)[C@H]1OC(=O)[C@H](O)[C@H]1O [saccharolactone, D-saccharic acid 1,4-lactone]
[1]; 1 mM saccharolactone (pH-adjusted)
  5-HT glucuronidation, % of the control activity (measured at 0 mM): 104±8%
[1]; 2 mM saccharolactone (pH-adjusted)
  5-HT glucuronidation, % of the control activity (measured at 0 mM): 93±5%
[1]; 5 mM saccharolactone (pH-adjusted)
  5-HT glucuronidation, % of the control activity (measured at 0 mM): 86±4 ^a %
[1]; 10 mM saccharolactone (pH-adjusted)
  5-HT glucuronidation, % of the control activity (measured at 0 mM): 87±4 ^a %
[1]; 20 mM saccharolactone (pH-adjusted)
  5-HT glucuronidation, % of the control activity (measured at 0 mM): 63±5 ^a %
[2]; 1 mM saccharolactone
  Trifluoperazine glucuronidation, % of the control activity (measured at 0 mM): 98±5%
[2]; 2 mM saccharolactone
  Trifluoperazine glucuronidation, % of the control activity (measured at 0 mM): 101±9%
[2]; 5 mM saccharolactone
  Trifluoperazine glucuronidation, % of the control activity (measured at 0 mM): 95±3%
[2]; 10 mM saccharolactone
  Trifluoperazine glucuronidation, % of the control activity (measured at 0 mM): 93±4%
[2]; 20 mM saccharolactone
  Trifluoperazine glucuronidation, % of the control activity (measured at 0 mM): 97±5%
UGT1A4; 5 mM saccharolactone
  Trifluoperazine glucuronidation, % of the control activity (measured at 0 mM): 90±4%
UGT1A4; 20 mM saccharolactone
  Trifluoperazine glucuronidation, % of the control activity (measured at 0 mM): 82±5 ^a %
UGT1A4; human, pH 7.5, probe trifluoperazine
  inhibition at 20 mM: 18%
[3]; 1 mM saccharolactone
  Codeine glucuronidation, % of the control activity (measured at 0 mM): 98±7%
[3]; 2 mM saccharolactone
  Codeine glucuronidation, % of the control activity (measured at 0 mM): 97±4%
[3]; 5 mM saccharolactone
  Codeine glucuronidation, % of the control activity (measured at 0 mM): 91±2 ^a %
[3]; 10 mM saccharolactone
  Codeine glucuronidation, % of the control activity (measured at 0 mM): 95±5%
[3]; 20 mM saccharolactone
  Codeine glucuronidation, % of the control activity (measured at 0 mM): 88±8%
[3]; pHLMs, 5 mM saccharolactone, p<0.05
  inhibition of codeine glucuronidation: 9%
UGT2B4; 5 mM saccharolactone
  Codeine glucuronidation, % of the control activity (measured at 0 mM): 91±4%
UGT2B4; 20 mM saccharolactone
  Codeine glucuronidation, % of the control activity (measured at 0 mM): 88±2%
[4]; 1 mM saccharolactone
  AZT glucuronidation, % of the control activity (measured at 0 mM): 96±2%
[4]; 2 mM saccharolactone
  AZT glucuronidation, % of the control activity (measured at 0 mM): 98±2%
[4]; 5 mM saccharolactone
  AZT glucuronidation, % of the control activity (measured at 0 mM): 94±2%
[4]; 10 mM saccharolactone
  AZT glucuronidation, % of the control activity (measured at 0 mM): 94±3%
[4]; 20 mM saccharolactone
  AZT glucuronidation, % of the control activity (measured at 0 mM): 94±1%
UGT1A3; 5 mM saccharolactone
  Estradiol-3 glucuronidation, % of the control activity (measured at 0 mM): 92±18%
UGT1A3; 20 mM saccharolactone
  Estradiol-3 glucuronidation, % of the control activity (measured at 0 mM): 97±10%
UGT1A3; recombinant UGT1A3
  effect on estradiol glucuronidation: no effect
UGT2B7; 5 mM saccharolactone
  Estradiol-17 glucuronidation, % of the control activity (measured at 0 mM): 97±2%
UGT2B7; 20 mM saccharolactone
  Estradiol-17 glucuronidation, % of the control activity (measured at 0 mM): 87±7 ^a %
UGT2B7; recombinant UGT2B7, 20 mM saccharolactone, p<0.05
  reduction in estradiol-17 glucuronidation activity: 13%
[5]
  decrease in e-4-hydroxy-tamoxifen glucuronidation activity: 17%
UGT2B15
  decrease in e-4-hydroxy-tamoxifen glucuronidation activity: 25%
[6]; 20 mM saccharolactone in 50 mM potassium phosphate, initially pH 7.5
  pH of incubation buffer after adding saccharolactone: 6.8
[6]; saccharolactone up to 5 mM in 50 mM potassium phosphate pH 7.5
  effect on pH of incubation buffer: minimal effect on pH
HLMs
  effect on raloxifene glucuronidation: inhibited
